Experimental data as given in patent US11883526B2 (priority 2019, dated 2024).

Legend:
[1] = test system: elderly subjects with TRD; settings: double-blind phase
Procedure: The Clinician Administered Dissociative States Scale (CADSS) was measured prior to the start of each dose, at 40 minutes, and 1.5 hours postdose.

[2] = test system: elderly subjects with TRD; settings: US patients aged ≥65 years
Procedure: Safety evaluation included reported adverse events, clinical laboratory tests, vital sign measurements, physical examinations, electrocardiograms and nasal examinations. Safety was assessed via treatment emergent AEs (TEAEs).

glutamate NMDA receptor = settings: in vitro; cited from earlier work
adult subjects with TRD = settings: US patients
From the text: Adverse events were reported by the subject (or, when appropriate, by a caregiver, surrogate, or the subject's legally acceptable representative) for the duration of the study. Adverse events were followed by the investigator. TEAEs of special interest were examined separately.
The verbatim terms used in the eCRF by investigators to identify adverse events were coded using the MedDRA. All reported adverse events with onset during the double-blind induction phase (i.e., TEAEs, and adverse events that have worsened since baseline) were included in the analysis. For each adverse event, the percentage of subjects who experience at least 1 occurrence of the given event was summarized by treatment group. Adverse events occurring during the follow-up phase were summarized separately.
TEAEs of special interest were examined separately. AEs of special interest were listed in the SAP. Subjects who died, who discontinued treatment due to an adverse event, or who experienced a severe or a serious adverse event were summarized separately.
An adverse event is any untoward medical occurrence in a clinical study subject administered a medicinal (investigational or non-investigational) product. […]

[3] = test system: elderly subjects with TRD; assay type: in vivo, human; settings: each dosing day
From the text: The Modified Observer's Assessment of Alertness/Sedation (MOAA/S) was used to measure treatment-emergent sedation with correlation to levels of sedation defined by the American Society of Anesthesiologists (ASA) continuum. The MOAA/S scores range from 0 (No response to painful stimulus; corresponds to ASA continuum for general anesthesia) to 5 (Readily responds to name spoken in normal tone [awake]; corresponds to ASA continuum for minimal sedation). The proportion of subjects with sedation was <4% for the esketamine group for each dosing day.

[4] = Pharmacokinetics of intranasal esketamine in healthy subjects (Example 9); settings: across the 3 treatment groups
Procedure: This was an open-label, single-center study. The subjects were healthy Caucasian men and women, 20 to 55 years of age, inclusive. […] The solution consisted of:
Blood samples (4 mL each) for determination of esketamine and noresketamine plasma concentrations were collected into the appropriate collection tube (e.g., Vacutainer®) at timepoints 0.00, 0.12, 0.20, 0.37, 0.53, 0.67, 0.83, 1.00, 1.25, 1.50, 2.00, 3.00, 4.00, 6.00, 9.00, 12.00, 18.00, and 24.00 h. The total amount of blood to be drawn for clinical laboratory tests and PK evaluations is approximately 327 mL.
Plasma samples were analyzed for esketamine and noresketamine concentrations using the validated, specific and sensitive liquid chromatography coupled to tandem mass spectrometry (LC-MS/MS) achiral method of Example 8.
Serial PK blood samples (4 mL each) were collected for a 24-hour period from each subject (Periods 1, 2, and 3). […] Statistical Methods 1.6.4.1. Sample Size
The following key parameters of esketamine and noresketamine in plasma were calculated using noncompartmental methods and actual sampling times: Cmax, tmax, AUClast, AUC∞, t1/2,λ, and λz.

[5] = test system: patients with treatment-resistant depression (TRD); experiment: CGI-S (Example 7); assay type: in vivo, human
Procedure: Overall illness severity was assessed on the Clinical Global Impression of Severity (CGI-S) scale (Guy, “ECDEU Assessment Manual for Psychopharmacology—Revised (DHEW Publ No ADM 76-338)”, Rockville, Md.: U.S. Department of Health, Education, and Welfare, Public Health Service, Alcohol, Drug Abuse, and Mental Health Administration, NIMH Psychopharmacology Research Branch, Division of Extramural Research Programs; 1976, pp 218-222). Participants assessed their severity of anxiety on the Generalized Anxiety Disorder 7-item (GADS-7) Scale (See, Tables 157 and 158). See, Spitzer, “A brief measure for assessing generalized anxiety disorder—the GAD-7”, Arch. Intern. Med., 2006, 166(10):1092-1097.

CN[C@]1(c2ccccc2Cl)CCCCC1=O [esketamine, (S)-2-(2-chlorophenyl)-2-(methylamino)cyclohexanone]
dissociative and perceptual change symptoms (CADSS) resolved by [1]: ≤ 1.5 hours postdose | patients who withdrew the nasal spray [2]: 2 n | affinity for the glutamate NMDA receptor relative to R-ketamine (glutamate NMDA receptor): 3 to 4 fold | patients who withdrew from nasal spray drug (adult subjects with TRD): 3 n | proportion of subjects with sedation (post dose MOAA/S score ≤3) [3]: < 4% | variability of AUC (AUClast and AUC∞) [4]: 25.0% to 30.4 | variability of Cmax (percent coefficient of variation) [4]: 35.7% to 36.7 | CGI-S change from baseline, Median Change (Range) ([5]; Period 1 (first day to day 8), 28 mg): −1.0 (−2, 1) | CGI-S change from baseline, Median Change (Range) ([5]; Period 1 (first day to day 8), 56 mg): −1.0 (−3, 0) | CGI-S change from baseline, Median Change (Range) ([5]; Period 1 (first day to day 8), 84 mg): −0.5 (−4, 0) | CGI-S at end point, Median (Range) ([5]; Period 1, 28 mg): 4.0 (3, 5) | CGI-S at end point, Median (Range) ([5]; Period 1, 56 mg): 4.0 (1, 5) | CGI-S at end point, Median (Range) ([5]; Period 1, 84 mg): 4.0 (1, 6) | CGI-S change from baseline, Median Change (Range) ([5]; Period 2 (first day to day 8 of period), 28 mg): −1.0 (−1, 0) | CGI-S change from baseline, Median Change (Range) ([5]; Period 2 (first day to day 8 of period), 56 mg): −1.0 (−2, 0) | CGI-S change from baseline, Median Change (Range) ([5]; Period 2 (first day to day 8 of period), 84 mg): −1.0 (−2, 0) | CGI-S at end point, Median (Range) ([5]; Period 2, 28 mg): 4.0 (3, 5) | CGI-S at end point, Median (Range) ([5]; Period 2, 56 mg): 5.0 (4, 6) | CGI-S at end point, Median (Range) ([5]; Period 2, 84 mg): 4.0 (3, 5)
